Experimental data as given in ChEMBL document CHEMBL1140040, “Synthesis and cytotoxic activity of some novel polycyclic gamma-butyrolactones” (Bioorg Med Chem Lett, 2008).

Columns and labels:
[1] = test system: SK-OV-3; assay: Cytotoxicity against human SKOV3 cells assessed as age growth inhibition at 10 uM after 48 hrs by sulforhodamine B assay; assay type: functional; conditions: SK-OV-3, 48 h, read-out: GI
[2] = test system: A549; assay: Cytotoxicity against human A549 cells assessed as age growth inhibition at 100 uM after 48 hrs by sulforhodamine B assay; assay type: functional; conditions: A549, 48 h, read-out: GI
[3] = test system: COLO 205; assay: Antiproliferative activity against human COLO205 cells after 48 hrs by sulforhodamine B assay; assay type: functional, cell-based; conditions: COLO 205, 48 h
[4] = test system: A549; assay: Cytotoxicity against human A549 cells assessed as age growth inhibition at 50 uM after 48 hrs by sulforhodamine B assay; assay type: functional; conditions: A549, 48 h, read-out: GI
[5] = test system: HCT-15; assay: Cytotoxicity against human HCT15 cells assessed as age growth inhibition at 50 uM after 48 hrs by sulforhodamine B assay; assay type: functional; conditions: HCT-15, 48 h, read-out: GI
[6] = test system: IGROV-1; assay: Cytotoxicity against human IGROV1 cells assessed as age growth inhibition at 10 uM after 48 hrs by sulforhodamine B assay; assay type: functional; conditions: IGROV-1, 48 h, read-out: GI
[7] = test system: COLO 205; assay: Cytotoxicity against human COLO205 cells assessed as age growth inhibition at 50 uM after 48 hrs by sulforhodamine B assay; assay type: functional; conditions: COLO 205, 48 h, read-out: GI
[8] = test system: SF-295; assay: Cytotoxicity against human SF295 cells assessed as age growth inhibition at 100 uM after 48 hrs by sulforhodamine B assay; assay type: functional; conditions: SF-295, 48 h, read-out: GI
[9] = test system: IGROV-1; assay: Antiproliferative activity against human IGROV1 cells after 48 hrs by sulforhodamine B assay; assay type: functional, cell-based; conditions: IGROV-1, 48 h
[10] = test system: HEp-2; assay: Cytotoxicity against human HEP2 cells assessed as age growth inhibition at 10 uM after 48 hrs by sulforhodamine B assay; assay type: functional; conditions: HEp-2, 48 h, read-out: GI
[11] = test system: HEp-2; assay: Cytotoxicity against human HEP2 cells assessed as age growth inhibition at 100 uM after 48 hrs by sulforhodamine B assay; assay type: functional; conditions: HEp-2, 48 h, read-out: GI
[12] = test system: HCT-15; assay: Cytotoxicity against human HCT15 cells assessed as age growth inhibition at 10 uM after 48 hrs by sulforhodamine B assay; assay type: functional; conditions: HCT-15, 48 h, read-out: GI
[13] = test system: SK-OV-3; assay: Cytotoxicity against human SKOV3 cells assessed as age growth inhibition at 100 uM after 48 hrs by sulforhodamine B assay; assay type: functional; conditions: SK-OV-3, 48 h, read-out: GI
[14] = test system: SF-295; assay: Cytotoxicity against human SF295 cells assessed as age growth inhibition at 50 uM after 48 hrs by sulforhodamine B assay; assay type: functional; conditions: SF-295, 48 h, read-out: GI
[15] = test system: SK-OV-3; assay: Cytotoxicity against human SKOV3 cells assessed as age growth inhibition at 50 uM after 48 hrs by sulforhodamine B assay; assay type: functional; conditions: SK-OV-3, 48 h, read-out: GI
[16] = test system: HOP-62; assay: Antiproliferative activity against human HOP62 cells after 48 hrs by sulforhodamine B assay; assay type: functional, cell-based; conditions: HOP-62, 48 h
[17] = test system: SF-295; assay: Antiproliferative activity against human SF295 cells after 48 hrs by sulforhodamine B assay; assay type: functional, cell-based; conditions: SF-295, 48 h
[18] = test system: DU-145; assay: Antiproliferative activity against human DU145 cells after 48 hrs by sulforhodamine B assay; assay type: functional, cell-based; conditions: DU-145, 48 h
[19] = test system: DU-145; assay: Cytotoxicity against human DU145 cells assessed as age growth inhibition at 50 uM after 48 hrs by sulforhodamine B assay; assay type: functional; conditions: DU-145, 48 h, read-out: GI
[20] = test system: SK-OV-3; assay: Antiproliferative activity against human SKOV3 cells after 48 hrs by sulforhodamine B assay; assay type: functional, cell-based; conditions: SK-OV-3, 48 h
[21] = test system: HCT-15; assay: Cytotoxicity against human HCT15 cells assessed as age growth inhibition at 100 uM after 48 hrs by sulforhodamine B assay; assay type: functional; conditions: HCT-15, 48 h, read-out: GI
[22] = test system: A549; assay: Antiproliferative activity against human A549 cells after 48 hrs by sulforhodamine B assay; assay type: functional, cell-based; conditions: A549, 48 h
[23] = test system: HCT-15; assay: Antiproliferative activity against human HCT15 cells after 48 hrs by sulforhodamine B assay; assay type: functional, cell-based; conditions: HCT-15, 48 h
[24] = test system: SF-295; assay: Cytotoxicity against human SF295 cells assessed as age growth inhibition at 10 uM after 48 hrs by sulforhodamine B assay; assay type: functional; conditions: SF-295, 48 h, read-out: GI
[25] = test system: COLO 205; assay: Cytotoxicity against human COLO205 cells assessed as age growth inhibition at 10 uM after 48 hrs by sulforhodamine B assay; assay type: functional; conditions: COLO 205, 48 h, read-out: GI
[26] = test system: HOP-62; assay: Cytotoxicity against human HOP62 cells assessed as age growth inhibition at 50 uM after 48 hrs by sulforhodamine B assay; assay type: functional; conditions: HOP-62, 48 h, read-out: GI
[27] = test system: IGROV-1; assay: Cytotoxicity against human IGROV1 cells assessed as age growth inhibition at 100 uM after 48 hrs by sulforhodamine B assay; assay type: functional; conditions: IGROV-1, 48 h, read-out: GI
[28] = test system: DU-145; assay: Cytotoxicity against human DU145 cells assessed as age growth inhibition at 10 uM after 48 hrs by sulforhodamine B assay; assay type: functional; conditions: DU-145, 48 h, read-out: GI
[29] = test system: IGROV-1; assay: Cytotoxicity against human IGROV1 cells assessed as age growth inhibition at 50 uM after 48 hrs by sulforhodamine B assay; assay type: functional; conditions: IGROV-1, 48 h, read-out: GI
[30] = test system: HEp-2; assay: Cytotoxicity against human HEP2 cells assessed as age growth inhibition at 50 uM after 48 hrs by sulforhodamine B assay; assay type: functional; conditions: HEp-2, 48 h, read-out: GI
[31] = test system: COLO 205; assay: Cytotoxicity against human COLO205 cells assessed as age growth inhibition at 100 uM after 48 hrs by sulforhodamine B assay; assay type: functional; conditions: COLO 205, 48 h, read-out: GI
[32] = test system: HOP-62; assay: Cytotoxicity against human HOP62 cells assessed as age growth inhibition at 10 uM after 48 hrs by sulforhodamine B assay; assay type: functional; conditions: HOP-62, 48 h, read-out: GI
[33] = test system: A549; assay: Cytotoxicity against human A549 cells assessed as age growth inhibition at 10 uM after 48 hrs by sulforhodamine B assay; assay type: functional; conditions: A549, 48 h, read-out: GI
[34] = test system: HEp-2; assay: Antiproliferative activity against human HEP2 cells after 48 hrs by sulforhodamine B assay; assay type: functional, cell-based; conditions: HEp-2, 48 h
[35] = test system: DU-145; assay: Cytotoxicity against human DU145 cells assessed as age growth inhibition at 100 uM after 48 hrs by sulforhodamine B assay; assay type: functional; conditions: DU-145, 48 h, read-out: GI
[36] = test system: HOP-62; assay: Cytotoxicity against human HOP62 cells assessed as age growth inhibition at 100 uM after 48 hrs by sulforhodamine B assay; assay type: functional; conditions: HOP-62, 48 h, read-out: GI

Row | SMILES | inhibition of growth at 10 µM [1] [%] | inhibition of growth at 100 µM [2] [%] | IC50 [3] [µM] | inhibition of growth at 50 µM [4] [%] | inhibition of growth at 50 µM [5] [%] | inhibition of growth at 10 µM [6] [%] | inhibition of growth at 50 µM [7] [%] | inhibition of growth at 100 µM [8] [%] | IC50 [9] [µM] | inhibition of growth at 10 µM [10] [%] | inhibition of growth at 100 µM [11] [%] | inhibition of growth at 10 µM [12] [%] | inhibition of growth at 100 µM [13] [%] | inhibition of growth at 50 µM [14] [%] | inhibition of growth at 50 µM [15] [%] | IC50 [16] [µM] | IC50 [17] [µM] | IC50 [18] [µM] | inhibition of growth at 50 µM [19] [%] | IC50 [20] [µM] | also measured
1 | CC1(C)CCC[C@@]2(C)C1=C[C@H]1C(=O)O[C@H](c3ccc(Cl)cc3)[C@H]12 | 10 | 20 | > 100 | 12 | 29 | 1 | 24 | 31 | > 100 | 8 | 18 | 9 | 24 | 23 | 14 | > 100 | > 100 | > 100 | 30 | > 100 | inhibition of growth at 100 µM [21]: 30%; IC50 [22]: > 100 µM; IC50 [23]: > 100 µM; inhibition of growth at 10 µM [24]: 20%; inhibition of growth at 10 µM [25]: 22%; inhibition of growth at 50 µM [26]: 29%; inhibition of growth at 100 µM [27]: 16%; inhibition of growth at 10 µM [28]: 16%; inhibition of growth at 50 µM [29]: 15%; inhibition of growth at 50 µM [30]: 18%; inhibition of growth at 100 µM [31]: 25%; inhibition of growth at 10 µM [32]: 27%; inhibition of growth at 10 µM [33]: 10%; IC50 [34]: > 100 µM; inhibition of growth at 100 µM [35]: 35%; inhibition of growth at 100 µM [36]: 38%
2 | CC1(C)CCC[C@@]2(C)C1=C[C@H]1C(=O)O[C@H](c3ccc(Br)cc3)[C@H]12 | 6 | 26 | > 100 | 10 | 32 | 7 | 14 | 21 | > 100 | 3 | 22 | 7 | 52 | 18 | 28 | 49.5 | > 100 | > 100 | 27 | 95.1 | inhibition of growth at 100 µM [21]: 40%; IC50 [22]: > 100 µM; IC50 [23]: > 100 µM; inhibition of growth at 10 µM [24]: 0%; inhibition of growth at 10 µM [25]: 14%; inhibition of growth at 50 µM [26]: 55%; inhibition of growth at 100 µM [27]: 30%; inhibition of growth at 10 µM [28]: 21%; inhibition of growth at 50 µM [29]: 26%; inhibition of growth at 50 µM [30]: 18%; inhibition of growth at 100 µM [31]: 32%; inhibition of growth at 10 µM [32]: 0%; inhibition of growth at 10 µM [33]: 8%; IC50 [34]: > 100 µM; inhibition of growth at 100 µM [35]: 28%; inhibition of growth at 100 µM [36]: 66%
3 | CC1(C)CCC[C@@]2(C)C1=C[C@H]1C(=O)O[C@H](c3ccc(C#N)cc3)[C@H]12 | 17 | 25 | > 100 | 24 | 25 | 6 | 24 | 20 | > 100 | 5 | 19 | 14 | 27 | 17 | 25 | > 100 | > 100 | > 100 | 22 | > 100 | inhibition of growth at 100 µM [21]: 30%; IC50 [22]: > 100 µM; IC50 [23]: > 100 µM; inhibition of growth at 10 µM [24]: 12%; inhibition of growth at 10 µM [25]: 2%; inhibition of growth at 50 µM [26]: 9%; inhibition of growth at 100 µM [27]: 29%; inhibition of growth at 10 µM [28]: 16%; inhibition of growth at 50 µM [29]: 25%; inhibition of growth at 50 µM [30]: 18%; inhibition of growth at 100 µM [31]: 24%; inhibition of growth at 10 µM [32]: 5%; inhibition of growth at 10 µM [33]: 15%; IC50 [34]: > 100 µM; inhibition of growth at 100 µM [35]: 25%; inhibition of growth at 100 µM [36]: 18%
